This passage reports Ki results from BindingDB's records for doi:10.1016/j.bmcl.2011.07.114 (Pfizer, 2011).

Structures are written as SMILES.

The term Ki denotes the equilibrium dissociation constant of an inhibitor or competing ligand from its target. Read a low Ki as a stronger hold on the target.

The assay has as its target Histamine H4 receptor (Homo sapiens, UniProt Q9H3N8). As to the kind of experiment: Displacement of [3H]histamine from human histamine H4 receptor expressed in CHO cells after 90 mins by scintillation counting technique. (In general: Loss of bound radioactivity is the signal in a displacement assay; it reports binding, not function.)

Chain of Histamine H4 receptor (Q9H3N8 whole entry): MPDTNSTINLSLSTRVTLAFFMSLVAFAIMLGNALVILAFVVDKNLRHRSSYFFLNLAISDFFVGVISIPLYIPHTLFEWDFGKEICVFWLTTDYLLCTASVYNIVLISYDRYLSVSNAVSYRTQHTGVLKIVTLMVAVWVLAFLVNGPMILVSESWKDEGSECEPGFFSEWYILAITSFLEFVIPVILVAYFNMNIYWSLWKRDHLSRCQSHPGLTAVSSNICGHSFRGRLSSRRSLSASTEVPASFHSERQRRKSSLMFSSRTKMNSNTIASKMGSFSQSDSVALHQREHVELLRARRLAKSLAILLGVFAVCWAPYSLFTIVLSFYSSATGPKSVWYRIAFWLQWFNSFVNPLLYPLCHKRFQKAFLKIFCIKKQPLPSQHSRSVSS

The molecule `COCc1ccc(CN2CC[C@H](Nc3cc(NCCC(C)(C)C)ncn3)C2)o1` came in with a Ki of 20 µM. `CC(C)(C)CCNc1cc(N[C@H]2CCN(Cc3cccc(F)c3O)C2)ncn1` came in with a Ki of 20 µM.
